Reference: patent US9182397B2, “Immunoassay for detecting antibiotics” (DSM IP ASSETS B.V., priority 2011, dated 2015)

How the values were obtained:
[1] = system: Penicillin binding protein purified from Bacillus stearothermophilus; assay: Detection of Penicillin G after different shaking steps (Example 28); set-up: key: 0: no intensity; 1: low intensity; 2: medium intensity; 3: high intensity
Method: (§1) A nitrocellulose HF90 membrane (Millipore; length 25 mm) was used as a detection region. The membrane was glued to a polystyrene laminated card (thickness 0.254 mm) 8 mm from the proximal end of the card. Next, the detection zone and control zone were applied onto the nitrocellulose membrane. The detection zone was applied by dispensing 1 mg/ml of a 7ACA-spacer-BSA conjugate in 20 mM KPO4-buffer (pH 7.5) with a Biodot Dispense workstation XYZ 3050 with frontline at 0.2 μl/cm. The control zone was applied by dispensing 0.15 mg/ml of an anti-IgY antibody in 20 mM KPO4-buffer (pH 7.5) comprising 0.675 mg/ml BSA, 5% w/v saccharose and 20 mM NaCl with a Biodot Dispense workstation XYZ 3050 with frontline at 0.8 μl/cm. After drying of the zones, the nitrocellulose membrane was blocked by spraying a solution comprising 10 mM Tris buffer (pH 8) comprising 2% w/v BSA and 0.05% w/v Tween-20 using a Biodot Dispense workstation XYZ 3050 with airjet 3×. The solution was sprayed onto the membrane at a distance of 2 mm below the detection zone. Thereafter, the sample receiving region (VF2 membrane from Millipore; length 1 cm) was glued at the proximal end of the card overlapping 2 mm with the nitrocellulose membrane. The absorbing region (10038 membrane from Millipore; length 20 mm) was glued at the distal end of the card with an overlap of 2 mm on the nitrocellulose membrane. The obtained cards were dried at 37° C. in a dry atmosphere (0% relative humidity). The card was cut in strips of 5.2 mm width and kept at a dry atmosphere (0% relative humidity).
(§2) Streptavidin-coated gold particles were synthesized by reacting colloidal gold (diameter 40 nm; 1 OD/ml) with 10 μg/ml streptavidin. Next, the obtained solution was concentrated by tangential flow filtration, washed and stored in a Tris buffer (pH 8) including NaCN. Penicillin binding protein purified from Bacillus stearothermophilus was biotinylated (1:4) with D-biotinyl-epsilon-aminocaproic acid-N-hydroxysuccinimide ester. Next, the penicillin binding protein-gold conjugate was synthesized by reacting 1.5 μg biotinylated penicillin binding protein with 1 OD streptavidin-coated gold particles for 1 hour, followed by centrifugation at 10,000×g for 5 minutes and resuspension of the obtained pellet in 45 mM bicarbonate buffer comprising 0.1% w/v Triton X-100 (pH 9.6).
(§3) Thereafter, 140-200 mOD of the penicillin binding protein-gold conjugate and 5-20 mOD of the IgY-gold conjugate was solubilized in 100 μl buffer (80 mM Tris buffer comprising 0.01% w/v Triton-X-100, 0.4% w/v BSA, 5% v/v glycerin and 2% w/v saccharose (pH 8.5)) and 0.75 μl of the solution was dispensed per tube and dried for 12 hours at 40° C. The obtained tubes were sealed.
(§4) 150 μl of spiked milk was added per tube containing the dried conjugates. The concentration of penicillin G in the added milk varied from 0 to 4 ng/g (tube 1: 0 ng/g; […]; tube 2: 2 ng/g; tube 3: 3 ng/g; and tube 4: 4 ng/g). The obtained liquid composition was incubated for 2 minutes at 64° C. in an incubator. A test device was put into the tube and incubated for 3 minutes at 64° C. in the incubator. The result was read by eye.
The test was done essentially as described in Example 3, with the proviso that different shaking steps were applied. […]

[2] = system: Penicillin binding protein purified from Bacillus stearothermophilus; assay: Lateral flow test strip, penicillin G in spiked milk (Example 3); set-up: key to Intensity of the detection zone: 0: no intensity; 1: low intensity; 2: medium intensity; 3: high intensity
Method: as §1, §2
IgY-coated gold particles were synthesized by reacting colloidal gold (diameter 40 nm; 1 OD/ml with 10 μg/ml IgY. Next, the obtained solution was centrifuged at 7,500×g for 10 minutes and the obtained pellet was resuspended in a Tris buffer (pH 8), washed by another round of centrifugation and resuspension of the obtained pellet in a Tris buffer (pH 8) and stored in a Tris-buffer (pH 8) including NaCN.
as §3, §4

[3] = system: Penicillin binding protein purified from Bacillus stearothermophilus; assay: Detection of Penicillin G with milk having a different initial temperature (Example 30); set-up: key: 0: no intensity; 1: low intensity; 2: medium intensity; 3: high intensity
Method: as §1, §2, §3, §4
The test was done essentially as described in Example 3, with the proviso that the test was done with milk having an initial different temperature (0° C., 4° C., 20° C. or 45° C.). The milk was allowed to reach room temperature shortly before the test was done.

## CC1(C)S[C@@H]2[C@H](NC(=O)Cc3ccccc3)C(=O)N2[C@H]1C(=O)O [Penicillin G]
[1]; Pen G 3 ppb, Method a, no shaking steps (0 ppb gave 2, control zone 1)
  Intensity of detection zone: 1
[1]; Pen G 3 ppb, Method b, one shaking step (10 seconds) after incubation
  Intensity of detection zone: 2
[1]; Pen G 3 ppb, Method c, one shaking step (10 seconds) before incubation
  Intensity of detection zone: 2
[1]; Pen G 3 ppb, Method d, shaking 5 seconds before and 10 seconds after incubation
  Intensity of detection zone: 2
[1]; Pen G 3 ppb, Method e, shaking 10 seconds before and 10 seconds after incubation
  Intensity of detection zone: 2
[1]; Pen G 4 ppb, Method a, no shaking steps (0 ppb gave 2, control zone 1)
  Intensity of detection zone: 1
[1]; Pen G 4 ppb, Method b, one shaking step (10 seconds) after incubation
  Intensity of detection zone: 1
[1]; Pen G 4 ppb, Method c, one shaking step (10 seconds) before incubation
  Intensity of detection zone: 1
[1]; Pen G 4 ppb, Method d, shaking 5 seconds before and 10 seconds after incubation
  Intensity of detection zone: 1
[1]; Pen G 4 ppb, Method e, shaking 10 seconds before and 10 seconds after incubation
  Intensity of detection zone: 1
[2]; Penicillin G 1 ng/g in milk
  Intensity of the detection zone compared with the intensity of the control zone: clearly higher
[2]; Penicillin G 1 ng/g in spiked milk, read by eye
  Intensity of the detection zone: 3
[2]; Penicillin G 2 ng/g in milk
  Signal intensity of the detection zone compared with the signal intensity of the control zone: similar
[2]; Penicillin G 2 ng/g in spiked milk, read by eye
  Intensity of the detection zone: 2
[2]; Penicillin G 3 ng/g in milk
  Signal intensity of the detection zone compared with the signal intensity of the control zone: similar
[2]; Penicillin G 3 ng/g in spiked milk, read by eye
  Intensity of the detection zone: 2
[2]; Penicillin G 4 ng/g in milk
  Intensity of the detection zone compared with the intensity of the control zone: significantly lower
[2]; Penicillin G 4 ng/g in spiked milk, read by eye
  Intensity of the detection zone: 1
[2]; spiked milk, read by eye
  Concentration in the milk at which the signal of the detection zone clearly was less intense: ≥ 2 ng/g
[3]; Pen G 3 ppb, initial milk temperature 0 ° C.
  Intensity of detection zone: 2
[3]; Pen G 3 ppb, initial milk temperature 4 ° C.
  Intensity of detection zone: 2
[3]; Pen G 3 ppb, initial milk temperature 20 ° C.
  Intensity of detection zone: 2
[3]; Pen G 3 ppb, initial milk temperature 45 ° C.
  Intensity of detection zone: 2
[3]; Pen G 4 ppb, initial milk temperature 0 ° C.
  Intensity of detection zone: 1
[3]; Pen G 4 ppb, initial milk temperature 4 ° C.
  Intensity of detection zone: 1
[3]; Pen G 4 ppb, initial milk temperature 20 ° C.
  Intensity of detection zone: 1
[3]; Pen G 4 ppb, initial milk temperature 45 ° C.
  Intensity of detection zone: 1
